Source: patent US11088380B2, “Electrolyte solution for redox flow battery and redox flow battery comprising same” (Seoul National University R&DB Foundation, priority 2013, dated 2021)
In brackets after ≈: the same amount, converted by molar mass.

Assay: physchem
Procedure: Menadione purchased from Sigma Aldrich was dissolved in propylene carbonate solution comprising tetrafluoroborate tetraethylammonium and the maximum amount of Menadione that can be dissolved was checked.
1,4-Naphthoquinone purchased from Sigma Aldrich was dissolved in propylene carbonate solution comprising tetrafluoroborate tetraethylammonium and the maximum amount of 1,4-Naphthoquinone that can be dissolved was checked.
N,N,N′N′-tetramethyl-p-phenylenediamine purchased from Alfa aesar was dissolved in propylene carbonate solution comprising tetrafluoroborate tetraethylammonium and the maximum amount of N,N,N′N′-tetramethyl-p-phenylenediamine that can be dissolved was checked.
Tetrathiafulvalene purchased from Sigma Aldrich was dissolved in propylene carbonate solution comprising tetrafluoroborate tetraethylammonium and the maximum amount of tetrathiafulvalene that can be dissolved was checked.
N,N-dimethyl-p-phenylenediamine purchased from Sigma Aldrich was dissolved in propylene carbonate solution comprising tetrafluoroborate tetraethylammonium and the maximum amount of N,N-dimethyl-p-phenylenediamine that can be dissolved was checked.
Triphenylamine purchased from Sigma Aldrich was dissolved in propylene carbonate solution comprising tetrafluoroborate tetraethylammonium and the maximum amount of triphenylamine that can be dissolved was checked.
4-Hydroxydiphenylamine purchased from Sigma Aldrich was dissolved in propylene carbonate solution comprising tetrafluoroborate tetraethylammonium and the maximum amount of 4-hydroxydiphenylamine that can be dissolved was checked.
4-Amino-diphenylamine purchased from Sigma Aldrich was dissolved in propylene carbonate solution comprising tetrafluoroborate tetraethylammonium and the maximum amount of 4-amino-diphenylamine that can be dissolved was checked.
Thianthrene purchased from Aldrich was dissolved in propylene carbonate solution comprising tetrafluoroborate tetraethylammonium and the maximum amount of thianthrene that can be dissolved was checked.

[1] = organic solvent or mixture, thermodynamic from solid
[2] = maximum amount dissolved in propylene carbonate solution comprising tetrafluoroborate tetraethylammonium

Row | solubility [1] [mM] | SMILES | also measured
1 | 100 (≈ 21.6 mg/mL) | c1ccc2c(c1)Sc1ccccc1S2 [Comparative example 2, Thianthrene, reference compound] | –
2 | 300 (≈ 51.7 mg/mL) | CC1=CC(=O)c2ccccc2C1=O [Example 2, menadione] | –
3 | – | CN(C)c1ccc(N(C)C)cc1 [Example 4, N,N,N′N′-tetramethyl-p-phenylenediamine] | solubility [2]: 2000 mM (≈ 329 mg/mL)
4 | – | C1=CSC(=C2SC=CS2)S1 [Example 5, Tetrathiafulvalene] | solubility: 600 mM (≈ 123 mg/mL)
5 | < 100 | c1ccc(N(c2ccccc2)c2ccccc2)cc1 [Example 7, Triphenylamine] | –
6 | – | Oc1ccc(Nc2ccccc2)cc1 [Example 8, 4-hydroxydiphenylamine] | solubility [2]: 4000 mM (≈ 741 mg/mL)
7 | – | Nc1ccc(Nc2ccccc2)cc1 [Example 9, 4-amino-diphenylamine] | solubility: 4000 mM (≈ 737 mg/mL)

Row | SMILES | solubility [1] [mM] | also measured
8 | O=C1C=CC(=O)c2ccccc21 [Example 3, 1,4-Naphthoquinone] | 500 (≈ 79.1 mg/mL) | –
9 | CN(C)c1ccc(N)cc1 [Example 6, N,N-dimethyl-p-phenylenediamine] | 2000 (≈ 272 mg/mL) | –
